Test results from patent publication US12077503B2, “Substituted cyclic amides and their use as herbicides” (FMC CORPORATION, priority 2015, dated 2024).

Assays:
Assay type in all cases: in vivo
[1] = test system: barnyardgrass (Echinochloa crus-galli); assay: Test G Pre-Emergence Protocol; settings: Echinochloa crus-galli, pre-emergence, 312 h, evaluated after 13 days; for pest or weed control at 15.625 g/ha: 15.625 g ai/ha, read-out: Barnyard grass damage rating (100=total damage to plant; 0=no damage to plant); for pest or weed control at 62.5 g/ha: 62.5 g ai/ha, 100=total damage to plant, 0=no damage to plant, read-out: plant damage rating, Barnyardgrass; for pest or weed control at 250 g/ha: 250 g ai/ha, read-out: Barnyardgrass damage rating (100=total damage to plant; 0=no damage to plant)
Method in brief: (§1)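 Spraying took place one day after sowing, at 15.625, 62.5 or 250 g/ha, using an acetone/water (50:50) spray solution containing 0.5% Tween 20. Plants were kept under glasshouse conditions (24/16 °C, 14 h light, 65% humidity, watered twice daily), and injury was rated 0–100 at day 13.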

[2] = test system: giant foxtail (Setaria faberi); assay: Test G Pre-Emergence Protocol; settings: Setaria faberi, pre-emergence, 312 h, evaluated after 13 days; for pest or weed control at 15.625 g/ha: 15.625 g ai/ha; for pest or weed control at 15.625 g/ha / pest or weed control at 250 g/ha: read-out: Foxtail, Giant damage rating (100=total damage to plant; 0=no damage to plant); for pest or weed control at 62.5 g/ha: 62.5 g ai/ha, 100=total damage to plant, 0=no damage to plant, read-out: plant damage rating, Foxtail, Giant; for pest or weed control at 250 g/ha: 250 g ai/ha
Method in brief: as §1

[3] = test system: velvetleaf (Abutilon theophrasti); assay: Test G Pre-Emergence Protocol; settings: Abutilon theophrasti, pre-emergence, 312 h, evaluated after 13 days; for pest or weed control at 15.625 g/ha: 15.625 g ai/ha; for pest or weed control at 15.625 g/ha / pest or weed control at 250 g/ha: read-out: Velvetleaf damage rating (100=total damage to plant; 0=no damage to plant); for pest or weed control at 62.5 g/ha: 62.5 g ai/ha, 100=total damage to plant, 0=no damage to plant, read-out: plant damage rating, Velvetleaf; for pest or weed control at 250 g/ha: 250 g ai/ha
Method in brief: as §1

[4] = test system: ivy-leaved morning glory (Ipomoea hederacea); assay: Test G Pre-Emergence Protocol; settings: Ipomoea, pre-emergence, 312 h, evaluated after 13 days; for pest or weed control at 15.625 g/ha: 15.625 g ai/ha, read-out: Morning-glory, Ivy-leaved damage rating (100=total damage to plant; 0=no damage to plant); for pest or weed control at 62.5 g/ha: 62.5 g ai/ha, 100=total damage to plant, 0=no damage to plant, read-out: plant damage rating, Morningglory, Ivy-leaved; for pest or weed control at 250 g/ha: 250 g ai/ha, read-out: Morningglory, Ivy-leaved damage rating (100=total damage to plant; 0=no damage to plant)
Method in brief: as §1

corn (Zea mays) [5] = assay: Test G Pre-Emergence Protocol; settings: Zea mays, pre-emergence, 312 h, evaluated after 13 days; for plant injury at 15.625 g/ha: 15.625 g ai/ha; for plant injury at 15.625 g/ha / plant injury at 250 g/ha: read-out: Corn damage rating (100=total damage to plant; 0=no damage to plant); for plant injury at 62.5 g/ha: 62.5 g ai/ha, 100=total damage to plant, 0=no damage to plant, read-out: plant damage rating, Corn; for plant injury at 250 g/ha: 250 g ai/ha
Method in brief: as §1

[6] = test system: redroot pigweed (Amaranthus retroflexus); assay: Test G Pre-Emergence Protocol; settings: Amaranthus retroflexus, pre-emergence, 312 h, evaluated after 13 days; for pest or weed control at 15.625 g/ha: 15.625 g ai/ha; for pest or weed control at 15.625 g/ha / pest or weed control at 250 g/ha: read-out: Pigweed, Redroot damage rating (100=total damage to plant; 0=no damage to plant); for pest or weed control at 62.5 g/ha: 62.5 g ai/ha, 100=total damage to plant, 0=no damage to plant, read-out: plant damage rating, Pigweed, Redroot; for pest or weed control at 250 g/ha: 250 g ai/ha
Method in brief: as §1

[7] = test system: barnyardgrass (Echinochloa crus-galli); assay: Test G Post-Emergence Protocol; settings: Echinochloa crus-galli, post-emergence, 312 h; for pest or weed control at 15.625 g/ha: 15.625 g ai/ha, evaluated after 13 days (100=total damage to plant; 0=no damage to plant), read-out: Barnyardgrass damage rating; for pest or weed control at 62.5 g/ha: 62.5 g ai/ha, read-out: Barnyardgrass damage rating (100=total damage to plant; 0=no damage to plant); for pest or weed control at 62.5 g/ha / pest or weed control at 250 g/ha: evaluated after 13 days; for pest or weed control at 250 g/ha: 250 g ai/ha, read-out: damage to plant, Barnyardgrass (100=total damage to plant; 0=no damage to plant)
Method in brief: (§2)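 Sow in soil; grow 8 d (24/16 °C, 14 h light, 65% humidity); spray 15.625/62.5/250 g/ha in acetone:water 50:50 + 0.5% Tween 20; grow on, water twice daily; score damage 0–100 at 13 d.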

[8] = test system: giant foxtail (Setaria faberi); assay: Test G Post-Emergence Protocol; settings: Setaria faberi, post-emergence, 312 h; for pest or weed control at 15.625 g/ha: 15.625 g ai/ha, evaluated after 13 days (100=total damage to plant; 0=no damage to plant), read-out: Foxtail, Giant damage rating; for pest or weed control at 62.5 g/ha: 62.5 g ai/ha, read-out: Foxtail, Giant damage rating (100=total damage to plant; 0=no damage to plant); for pest or weed control at 62.5 g/ha / pest or weed control at 250 g/ha: evaluated after 13 days; for pest or weed control at 250 g/ha: 250 g ai/ha, read-out: damage to plant, Foxtail, Giant (100=total damage to plant; 0=no damage to plant)
Method in brief: as §2

[9] = test system: velvetleaf (Abutilon theophrasti); assay: Test G Post-Emergence Protocol; settings: Abutilon theophrasti, post-emergence, 312 h; for pest or weed control at 15.625 g/ha: 15.625 g ai/ha, evaluated after 13 days (100=total damage to plant; 0=no damage to plant), read-out: Velvetleaf damage rating; for pest or weed control at 62.5 g/ha: 62.5 g ai/ha, read-out: Velvetleaf damage rating (100=total damage to plant; 0=no damage to plant); for pest or weed control at 62.5 g/ha / pest or weed control at 250 g/ha: evaluated after 13 days; for pest or weed control at 250 g/ha: 250 g ai/ha, read-out: damage to plant, Velvetleaf (100=total damage to plant; 0=no damage to plant)
Method in brief: as §2

[10] = test system: ivy-leaved morning glory (Ipomoea hederacea); assay: Test G Post-Emergence Protocol; settings: Ipomoea, post-emergence, 312 h; for pest or weed control at 15.625 g/ha: 15.625 g ai/ha, evaluated after 13 days (100=total damage to plant; 0=no damage to plant), read-out: Morningglory, Ivy-leaved damage rating; for pest or weed control at 62.5 g/ha: 62.5 g ai/ha, read-out: Morningglory, Ivy-leaved damage rating (100=total damage to plant; 0=no damage to plant); for pest or weed control at 62.5 g/ha / pest or weed control at 250 g/ha: evaluated after 13 days; for pest or weed control at 250 g/ha: 250 g ai/ha, read-out: damage to plant, Morningglory, Ivy-leaved (100=total damage to plant; 0=no damage to plant)
Method in brief: as §2

corn (Zea mays) [11] = assay: Test G Post-Emergence Protocol; settings: Zea mays, post-emergence, 312 h; for plant injury at 15.625 g/ha: 15.625 g ai/ha, evaluated after 13 days (100=total damage to plant; 0=no damage to plant), read-out: Corn damage rating; for plant injury at 62.5 g/ha: 62.5 g ai/ha, read-out: Corn damage rating (100=total damage to plant; 0=no damage to plant); for plant injury at 62.5 g/ha / plant injury at 250 g/ha: evaluated after 13 days; for plant injury at 250 g/ha: 250 g ai/ha, read-out: damage to plant, Corn (100=total damage to plant; 0=no damage to plant)
Method in brief: as §2

[12] = test system: redroot pigweed (Amaranthus retroflexus); assay: Test G Post-Emergence Protocol; settings: Amaranthus retroflexus, post-emergence, 312 h; for pest or weed control at 15.625 g/ha: 15.625 g ai/ha, evaluated after 13 days (100=total damage to plant; 0=no damage to plant), read-out: Pigweed, Redroot damage rating; for pest or weed control at 62.5 g/ha: 62.5 g ai/ha, read-out: Pigweed, Redroot damage rating (100=total damage to plant; 0=no damage to plant); for pest or weed control at 62.5 g/ha / pest or weed control at 250 g/ha: evaluated after 13 days; for pest or weed control at 250 g/ha: 250 g ai/ha, read-out: damage to plant, Pigweed, Redroot (100=total damage to plant; 0=no damage to plant)
Method in brief: as §2

| Structure (SMILES) | pest or weed control at 15.625 g/ha [1] | pest or weed control at 62.5 g/ha [1] | pest or weed control at 250 g/ha [1] | pest or weed control at 15.625 g/ha [2] | pest or weed control at 62.5 g/ha [2] | pest or weed control at 250 g/ha [2] | pest or weed control at 15.625 g/ha [3] | pest or weed control at 62.5 g/ha [3] | pest or weed control at 250 g/ha [3] | pest or weed control at 15.625 g/ha [4] | pest or weed control at 62.5 g/ha [4] | pest or weed control at 250 g/ha [4] | plant injury at 15.625 g/ha (corn (Zea mays) [5]) | plant injury at 62.5 g/ha (corn (Zea mays) [5]) | plant injury at 250 g/ha (corn (Zea mays) [5]) | pest or weed control at 15.625 g/ha [6] | pest or weed control at 62.5 g/ha [6] | pest or weed control at 250 g/ha [6] | pest or weed control at 15.625 g/ha [7] | pest or weed control at 62.5 g/ha [7] | other results |
| --- | --- | --- | --- | --- | --- | --- | --- | --- | --- | --- | --- | --- | --- | --- | --- | --- | --- | --- | --- | --- | --- |
| COc1ccc(CNC(=O)[C@H]2C(=O)N(C)C[C@@H]2c2ccc(C(F)(F)F)cc2)c(OC)c1 (racemic) [Compound 1479] | 0% | 0% | 10% | 0% | 20% | 20% | 0% | 0% | 10% | 0% | 0% | 0% | 0% | 0% | 0% | 0% | 0% | 0% | 0% | 20% | pest or weed control at 250 g/ha [7]: 20%; pest or weed control at 15.625 g/ha [8]: 0%; pest or weed control at 62.5 g/ha [8]: 20%; pest or weed control at 250 g/ha [8]: 0%; pest or weed control at 15.625 g/ha [9]: 0%; pest or weed control at 62.5 g/ha [9]: 0%; pest or weed control at 250 g/ha [9]: 0%; pest or weed control at 15.625 g/ha [10]: 0%; pest or weed control at 62.5 g/ha [10]: 0%; pest or weed control at 250 g/ha [10]: 0%; plant injury at 15.625 g/ha (corn (Zea mays) [11]): 10%; plant injury at 62.5 g/ha (corn (Zea mays) [11]): 10%; plant injury at 250 g/ha (corn (Zea mays) [11]): 10%; pest or weed control at 15.625 g/ha [12]: 0%; pest or weed control at 62.5 g/ha [12]: 0%; pest or weed control at 250 g/ha [12]: 20% |
| COc1cc([C@@H]2CN(C)C(=O)[C@H]2C(=O)Nc2cccc(F)c2F)ccn1 (racemic) [Compound 1480] | 30% | 80% | 90% | 40% | 90% | 90% | 0% | 0% | 10% | 0% | 0% | 70% | 20% | 30% | 80% | 0% | 0% | 40% | 50% | 70% | pest or weed control at 250 g/ha [7]: 80%; pest or weed control at 15.625 g/ha [8]: 60%; pest or weed control at 62.5 g/ha [8]: 70%; pest or weed control at 250 g/ha [8]: 70%; pest or weed control at 15.625 g/ha [9]: 0%; pest or weed control at 62.5 g/ha [9]: 0%; pest or weed control at 250 g/ha [9]: 20%; pest or weed control at 15.625 g/ha [10]: 0%; pest or weed control at 62.5 g/ha [10]: 0%; pest or weed control at 250 g/ha [10]: 20%; plant injury at 15.625 g/ha (corn (Zea mays) [11]): 20%; plant injury at 62.5 g/ha (corn (Zea mays) [11]): 20%; plant injury at 250 g/ha (corn (Zea mays) [11]): 60%; pest or weed control at 15.625 g/ha [12]: 0%; pest or weed control at 62.5 g/ha [12]: 0%; pest or weed control at 250 g/ha [12]: 10% |
| Cc1cc([C@@H]2CN(C)C(=O)[C@H]2C(=O)Nc2cccc(F)c2F)cc(Cl)n1 (racemic) [Compound 1481] | 20% | 40% | 80% | 40% | 60% | 90% | 0% | 0% | 10% | 0% | 0% | 10% | 30% | 30% | 60% | 0% | 0% | 20% | 30% | 60% | pest or weed control at 250 g/ha [7]: 70%; pest or weed control at 15.625 g/ha [8]: 40%; pest or weed control at 62.5 g/ha [8]: 60%; pest or weed control at 250 g/ha [8]: 70%; pest or weed control at 15.625 g/ha [9]: 0%; pest or weed control at 62.5 g/ha [9]: 0%; pest or weed control at 250 g/ha [9]: 10%; pest or weed control at 15.625 g/ha [10]: 0%; pest or weed control at 62.5 g/ha [10]: 10%; pest or weed control at 250 g/ha [10]: 80%; plant injury at 15.625 g/ha (corn (Zea mays) [11]): 20%; plant injury at 62.5 g/ha (corn (Zea mays) [11]): 20%; plant injury at 250 g/ha (corn (Zea mays) [11]): 60%; pest or weed control at 15.625 g/ha [12]: 0%; pest or weed control at 62.5 g/ha [12]: 0%; pest or weed control at 250 g/ha [12]: 20% |
